Results: patent publication US6444617B1, “Fused-heterocycle dicarboxylic acid diamide derivatives or salts thereof, herbicide and usage thereof” (Nihon Nohyaku Co., Ltd., priority 1998, dated 2002)

Key:
Type in all cases: in vivo
wheat = test: Test Example 4: phytotoxicity to upland crop plants, treatment after emergence; details: dosage 5 kg/ha, sprayed after emergence, judged 14 days after treatment
Procedure, shortened: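 Upland weeds and crop plants (soybean, wheat) are grown from seed in soil until they reach given leaf stages, then treated by spraying with the compound-containing agent; effects are judged two weeks later.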

soybean plant = test: as above; details: dosage 5 kg/ha, sprayed after emergence, judged 14 days after treatment
Procedure, shortened: (§1)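 Weeds, soybean and wheat were sown in soil-filled vats, covered with soil and grown to set leaf stages before a post-emergence spray of an agent containing the compound at a prescribed concentration. Weed-killing rate and crop phytotoxicity were assessed 14 days after treatment.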

[1] = test system: barnyard grass (Echinochloa crus-galli Beauv.), Ec; test: Test Example 4: herbicidal effect on upland weeds after emergence; details: dosage 5 kg/ha; sprayed after emergence; judged 14 days after treatment
Procedure, shortened: as §1

[2] = test system: forxtail grass (Alopecurus aequalis var. amurensis Ohwi), Am; test: as above; details: dosage 5 kg/ha; sprayed after emergence; judged 14 days after treatment
Procedure, shortened: as §1

[3] = test system: velvetleaf (Abutilon theophtasti L.), At; test: as above; details: dosage 5 kg/ha; sprayed after emergence; judged 14 days after treatment
Procedure, shortened: as §1

[4] = test system: cocklebur (Xanthium strumarium L.), Xs; test: as above; details: dosage 5 kg/ha; sprayed after emergence; judged 14 days after treatment
Procedure, shortened: as §1

[5] = test system: bird's eye speedwell (Veronica persica Poir.), Vp; test: as above; details: dosage 5 kg/ha; sprayed after emergence; judged 14 days after treatment
Procedure, shortened: as §1

[6] = test system: cleavers (Galium aparine L.), Ga; test: as above; details: dosage 5 kg/ha; sprayed after emergence; judged 14 days after treatment
Procedure, shortened: as §1

[7] = test system: barnyard grass (Echinochloa crus-galli Beauv.); test: Test Example 1: herbicidal effect on paddy field weeds before emergence; details: Dosage 5 kg/ha
Procedure, shortened: (§2)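 Grading reflects percent control relative to untreated plots, evaluated three weeks post-application. Treatment was a soil application of compound solution, predetermined dose, made to paddy-state pots before weed seeds germinated.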

[8] = test system: bulrush (Scirpus juncoides Roxb.); test: as above; details: Dosage 5 kg/ha
Procedure, shortened: as §2

[9] = test system: barnyard grass (Echinochloa crus-galli Beauv.), Ec; test: Test Example 3: herbicidal effect on upland weeds before emergence; details: dosage 5 kg/ha
Procedure, shortened: (§3)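 Herbicidal activity was rated from kill rate determined 14 days post-spray, the compound having been applied pre-emergence as a liquid agent.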

[10] = test system: forxtail grass (Alopecurus aequalis var. amurensis Ohwi), Am; test: as above; details: foxtail grass, dosage 5 kg/ha
Procedure, shortened: as §3

[11] = test system: velvetleaf (Abutilon theophtasti L.), At; test: as above; details: dosage 5 kg/ha
Procedure, shortened: as §3

[12] = test system: cocklebur (Xanthium strumarium L.), Xs; test: as above; details: dosage 5 kg/ha
Procedure, shortened: as §3

[13] = test system: bird's eye speedwell (Veronica persica Poir.), Vp; test: as above; details: dosage 5 kg/ha
Procedure, shortened: as §3

[14] = test system: cleavers (Galium aparine L.), Ga; test: as above; details: dosage 5 kg/ha
Procedure, shortened: as §3

wheat (Wh) = test: Test Example 3: phytotoxicity to upland crop plants, treatment before emergence; details: dosage 5 kg/ha
Procedure, shortened: (§4)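 Pre-emergence treatment: a liquid preparation containing a prescribed concentration of test compound was sprayed, and injury to soybean and wheat was assessed 14 days later. Phytotoxicity was judged against a scoring criterion, alongside weed-killing rate.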

soybean plant (So) = test: as above; details: dosage 5 kg/ha
Procedure, shortened: as §4

[15] = test system: barnyard grass (Echinochloa crus-galli Beauv.); test: Test Example 2: herbicidal effect on paddy field weeds after emergence; details: Dosage 5 kg/ha; one-leaved stage; 21 days after treatment
Procedure, shortened: (§5)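 Weeds in flooded paddy-soil pots were grown to the one-leaved stage, then the soil was treated with the compound solution at a set dosage.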

[16] = test system: bulrush (Scirpus juncoides Roxb.); test: as above; details: Dosage 5 kg/ha; one-leaved stage; 21 days after treatment
Procedure, shortened: as §5

[17] = test system: monochoria (Monochoria vaginalis Presl); test: as above; details: Dosage 5 kg/ha; one-leaved stage; 21 days after treatment
Procedure, shortened: as §5

Row | Structure (SMILES) | Phytotoxicity Wh (wheat) | Phytotoxicity So (soybean plant) | Herbicidal effect Ec [1] | Herbicidal effect Am [2] | Herbicidal effect At [3] | Herbicidal effect Xs [4] | Herbicidal effect Vp [5] | Herbicidal effect Ga [6] | Pre-emergence treatment Barnyard grass (herbicidal effect) [7] | Pre-emergence treatment Bulrush (herbicidal effect) [8] | Herbicidal effect Ec [9] | Herbicidal effect Am [10] | Herbicidal effect At [11] | Herbicidal effect Xs [12] | Herbicidal effect Vp [13] | Herbicidal effect Ga [14] | Phytotoxicity Wh (wheat (Wh)) | Phytotoxicity So (soybean plant (So)) | Post-emergence treatment Barnyard grass (herbicidal effect) [15] | Post-emergence treatment Bulrush (herbicidal effect) [16] | other results
1 | CCNC(=O)c1nc2c(cnn2C)cc1C(=O)Nc1c(CC)ccc(Cl)c1CC [compound 1087] | 5 (Crop-killing rate is 100%.) | 4 (Crop-killing rate is 90-99%.) | 5 (Weed-killing rate is 100%.) | 5 (Weed-killing rate is 100%.) | 5 (Weed-killing rate is 100%.) | 5 (Weed-killing rate is 100%.) | 5 (Weed-killing rate is 100%.) | 5 (Weed-killing rate is 100%.) | 5 (Weed-killing rate is 100%.) | 5 (Weed-killing rate is 100%.) | 5 (Weed-killing rate is 100%.) | 5 (Weed-killing rate is 100%.) | 5 (Weed-killing rate is 100%.) | 5 (Weed-killing rate is 100%.) | 5 (Weed-killing rate is 100%.) | 5 (Weed-killing rate is 100%.) | 5 (Crop-killing rate is 100%.) | 5 (Crop-killing rate is 100%.) | 5 (Weed-killing rate is 100%.) | 5 (Weed-killing rate is 100%.) | Post-emergence treatment Monochoria (herbicidal effect) [17]: 5 (Weed-killing rate is 100%.)
2 | CCCNC(=O)c1nc2c(cnn2C)cc1C(=O)Nc1c(CC)ccc(Cl)c1CC [compound 1088] | 5 (Crop-killing rate is 100%.) | 5 (Crop-killing rate is 100%.) | 5 (Weed-killing rate is 100%.) | 5 (Weed-killing rate is 100%.) | 5 (Weed-killing rate is 100%.) | 5 (Weed-killing rate is 100%.) | 5 (Weed-killing rate is 100%.) | 5 (Weed-killing rate is 100%.) | 5 (Weed-killing rate is 100%.) | 5 (Weed-killing rate is 100%.) | 5 (Weed-killing rate is 100%.) | 5 (Weed-killing rate is 100%.) | 5 (Weed-killing rate is 100%.) | 5 (Weed-killing rate is 100%.) | 5 (Weed-killing rate is 100%.) | 5 (Weed-killing rate is 100%.) | 5 (Crop-killing rate is 100%.) | 5 (Crop-killing rate is 100%.) | 5 (Weed-killing rate is 100%.) | 5 (Weed-killing rate is 100%.) | Post-emergence treatment Monochoria (herbicidal effect) [17]: 5 (Weed-killing rate is 100%.)
3 | CCCNC(=O)c1nc2c(cc1C(=O)Nc1c(CC)ccc(Cl)c1CC)c(C)nn2C [compound 1112] | 5 (Crop-killing rate is 100%.) | 5 (Crop-killing rate is 100%.) | 5 (Weed-killing rate is 100%.) | 5 (Weed-killing rate is 100%.) | 5 (Weed-killing rate is 100%.) | 5 (Weed-killing rate is 100%.) | 5 (Weed-killing rate is 100%.) | 5 (Weed-killing rate is 100%.) | 5 (Weed-killing rate is 100%.) | 5 (Weed-killing rate is 100%.) | 5 (Weed-killing rate is 100%.) | 5 (Weed-killing rate is 100%.) | 5 (Weed-killing rate is 100%.) | 5 (Weed-killing rate is 100%.) | 5 (Weed-killing rate is 100%.) | 5 (Weed-killing rate is 100%.) | 5 (Crop-killing rate is 100%.) | 5 (Crop-killing rate is 100%.) | 5 (Weed-killing rate is 100%.) | 5 (Weed-killing rate is 100%.) | Post-emergence treatment Monochoria (herbicidal effect) [17]: 5 (Weed-killing rate is 100%.)
4 | CCCNC(=O)c1nc2nn(C)cc2cc1C(=O)Nc1c(CC)ccc(Cl)c1CC [compound 1124] | 5 (Crop-killing rate is 100%.) | 5 (Crop-killing rate is 100%.) | 5 (Weed-killing rate is 100%.) | 5 (Weed-killing rate is 100%.) | 5 (Weed-killing rate is 100%.) | 5 (Weed-killing rate is 100%.) | 5 (Weed-killing rate is 100%.) | 5 (Weed-killing rate is 100%.) | 5 (Weed-killing rate is 100%.) | 5 (Weed-killing rate is 100%.) | 5 (Weed-killing rate is 100%.) | 5 (Weed-killing rate is 100%.) | 5 (Weed-killing rate is 100%.) | 5 (Weed-killing rate is 100%.) | 5 (Weed-killing rate is 100%.) | 5 (Weed-killing rate is 100%.) | 5 (Crop-killing rate is 100%.) | 5 (Crop-killing rate is 100%.) | 5 (Weed-killing rate is 100%.) | 5 (Weed-killing rate is 100%.) | Post-emergence treatment Monochoria (herbicidal effect) [17]: 5 (Weed-killing rate is 100%.)
5 | CCCNC(=O)c1nc2cnn(C)c2cc1C(=O)Nc1c(CC)ccc(Cl)c1CC [compound 1173] | 5 (Crop-killing rate is 100%.) | 5 (Crop-killing rate is 100%.) | 5 (Weed-killing rate is 100%.) | 5 (Weed-killing rate is 100%.) | 5 (Weed-killing rate is 100%.) | 5 (Weed-killing rate is 100%.) | 5 (Weed-killing rate is 100%.) | 5 (Weed-killing rate is 100%.) | 5 (Weed-killing rate is 100%.) | 5 (Weed-killing rate is 100%.) | 5 (Weed-killing rate is 100%.) | 5 (Weed-killing rate is 100%.) | 5 (Weed-killing rate is 100%.) | 5 (Weed-killing rate is 100%.) | 5 (Weed-killing rate is 100%.) | 5 (Weed-killing rate is 100%.) | 5 (Crop-killing rate is 100%.) | 5 (Crop-killing rate is 100%.) | 5 (Weed-killing rate is 100%.) | 5 (Weed-killing rate is 100%.) | Post-emergence treatment Monochoria (herbicidal effect) [17]: 5 (Weed-killing rate is 100%.)
